# Source: US9695198B2, “Factor IXa inhibitors” (MERCK SHARP & DOHME CORP., priority 2012, dated 2017)
# Target: Factor IXa (Homo sapiens, UniProt P00740)
# Test: Determination of inhibitory activity against Factor IXa (cleavage of fluorescent peptide CH3SO2-D-CHG-Gly-Arg-AFC)
# Format: biochemical
# Conditions: Factor IXa Inhibition table; low enzyme format; read-out: FIXa Low Enzyme
# Method: Determination of Inhibitory Activity Against Factor IXa
# Formation of a clot to stem bleeding at a site of blood vessel injury involves the coordinated activity of a group of plasma proteins that initiate and propagate fibrin formation and subsequently protect fibrin from premature degradation. Factor IX is a key component of the plasma system that forms a fibrin clot at a site of vascular injury. The activity of Factor IXa is measured by monitoring the cleavage of the fluorescent peptide, CH3SO2-D-CHG-Gly-Arg-AFC.AcOH (“CHG” is cyclohexyl-glycine and “AFC” is trifluoro aminomethyl coumarin). Factor IXa cleaves the amide bond between Arg and AFC, thereby releasing the AFC fluorophore. The free AFC can be detected with a fluorescence detector at an excitation wavelength of 405 nm and emission wavelength of 510 nm.
# Chain of Factor IXa (P00740 227-461 limits assumed): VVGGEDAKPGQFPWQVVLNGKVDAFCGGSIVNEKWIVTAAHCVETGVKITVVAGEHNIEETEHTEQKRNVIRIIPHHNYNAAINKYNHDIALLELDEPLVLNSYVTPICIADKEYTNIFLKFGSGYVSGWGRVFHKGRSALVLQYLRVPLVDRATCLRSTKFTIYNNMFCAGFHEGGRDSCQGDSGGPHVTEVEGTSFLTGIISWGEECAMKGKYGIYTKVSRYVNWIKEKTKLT
# Chain of Factor IXa (P00740 47-191 partner limits assumed): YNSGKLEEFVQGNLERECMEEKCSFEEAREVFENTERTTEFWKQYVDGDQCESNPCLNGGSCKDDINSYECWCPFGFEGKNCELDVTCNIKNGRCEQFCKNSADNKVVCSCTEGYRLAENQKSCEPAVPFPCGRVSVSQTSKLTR
row,IC50 [nM],Compound
1,14.5,"Nc1noc2c1ccc1[nH]c([C@H](O)[C@H]3OCCN(c4ccn(-c5ccncc5)n4)C3=O)nc(=O)c12 [Example 1, 3-Amino-7-((S)-hydroxy((R)-3-oxo-4-(1-(pyridin-4-yl)-1H-pyrazol-3-yl)morpholin-2-yl)methyl)isoxazolo[5,4-f]quinazolin-9(6H)-one]"
2,4.65,"Nc1nsc2c1ccc1[nH]c([C@H](O)[C@H]3OCCN(c4ccn(-c5ccncc5)n4)C3=O)nc(=O)c12 [Example 2, (R)-2-((S)-(3-Amino-9-oxo-6,9-dihydroisothiazolo[5,4-f]quinazolin-7-yl)(hydroxy)methyl)-4-(1-(pyridin-4-yl)-1H-pyrazol-3-yl)morpholin-3-one]"
3,11.3,"Cc1cc(N2CCO[C@H]([C@@H](O)c3nc(=O)c4c(ccc5c(N)nsc54)[nH]3)C2=O)nn1-c1ccncc1 [Example 3, (R)-2-((S)-(3-Amino-9-oxo-6,9-dihydroisothiazolo[5,4-f]quinazolin-7-yl)(hydroxy)methyl)-4-(5-methyl-1-(pyridin-4-yl)-1H-pyrazol-3-yl)morpholin-3-one]"
4,58.6,"Cc1cc(N2CCO[C@H]([C@@H](O)c3nc(=O)c4c(ccc5c(N)nsc54)[nH]3)C2=O)nn1-c1cccnc1 [Example 4, (R)-2-((S)-(3-Amino-9-oxo-6,9-dihydroisothiazolo[5,4-f]quinazolin-7-yl)(hydroxy)methyl)-4-(5-methyl-1-(pyridin-3-yl)-1H-pyrazol-3-yl)morpholin-3-one]"
5,10.8,"COc1cc(-n2ccc(N3CCO[C@H]([C@@H](O)c4nc(=O)c5c(ccc6c(N)nsc65)[nH]4)C3=O)n2)ccn1 [Example 5, (R)-2-((S)-(3-Amino-9-oxo-6,9-dihydroisothiazolo[5,4-f]quinazolin-7-yl)(hydroxy)methyl)-4-(1-(2-methoxypyridin-4-yl)-1H-pyrazol-3-yl)morpholin-3-one]"
6,58.2,"COc1cc(-n2nc(N3CCO[C@H]([C@@H](O)c4nc(=O)c5c(ccc6c(N)nsc65)[nH]4)C3=O)cc2C)ccn1 [Example 6, (R)-2-((S)-(3-Amino-9-oxo-6,9-dihydroisothiazolo[5,4-f]quinazolin-7-yl)(hydroxy)methyl)-4-(1-(2-methoxypyridin-4-yl)-5-methyl-1H-pyrazol-3-yl)morpholin-3-one]"
7,9.37,"Nc1nsc2c1ccc1[nH]c([C@H](O)[C@H]3OCCN(c4ccn(-c5ccnc(C(F)(F)F)c5)n4)C3=O)nc(=O)c12 [Example 7, (R)-2-((S)-(3-Amino-9-oxo-6,9-dihydroisothiazolo[5,4-f]quinazolin-7-yl)(hydroxy)methyl)-4-(1-(2-(trifluoromethyl)pyridin-4-yl)-1H-pyrazol-3-yl)morpholin-3-one]"
8,17.8,"Cc1cc(N2CCO[C@H]([C@@H](O)c3nc(=O)c4c(ccc5c(N)nsc54)[nH]3)C2=O)nn1-c1ccnc(C(F)(F)F)c1 [Example 8, (R)-2-((S)-(3-Amino-9-oxo-6,9-dihydroisothiazolo[5,4-f]quinazolin-7-yl)(hydroxy)methyl)-4-(5-methyl-1-(2-(trifluoromethyl)pyridin-4-yl)-1H-pyrazol-3-yl)morpholin-3-one]"
9,1.87,"Nc1nsc2c1ccc1[nH]c([C@H](O)[C@H]3OCCN(c4ccn(-c5ccnnc5)n4)C3=O)nc(=O)c12 [Example 9, (R)-2-((S)-(3-Amino-9-oxo-6,9-dihydroisothiazolo[5,4-f]quinazolin-7-yl)(hydroxy)methyl)-4-(1-(pyridazin-4-yl)-1H-pyrazol-3-yl)morpholin-3-one]"
10,3.04,"Nc1nsc2c1ccc1[nH]c([C@H](O)[C@H]3OCCN(c4ccn(-c5ccc(=O)n(C(F)F)c5)n4)C3=O)nc(=O)c12 [Example 10, (R)-2-((S)-(3-Amino-9-oxo-6,9-dihydroisothiazolo[5,4-f]quinazolin-7-yl)(hydroxy)methyl)-4-(1-(1-(difluoromethyl)-6-oxo-1,6-dihydropyridin-3-yl)-1H-pyrazol-3-yl)morpholin-3-one]"
11,52.1,"Cc1cc(N2CCO[C@H]([C@@H](O)c3nc(=O)c4c(ccc5c(N)nsc54)[nH]3)C2=O)nn1-c1ccc(F)cc1 [Example 11, (R)-2-((S)-(3-Amino-9-oxo-6,9-dihydroisothiazolo[5,4-f]quinazolin-7-yl)(hydroxy)methyl)-4-(1-(4-fluorophenyl)-5-methyl-1H-pyrazol-3-yl)morpholin-3-one]"
12,3.07,"N#Cc1ccc(-n2ccc(N3CCO[C@H]([C@@H](O)c4nc(=O)c5c(ccc6c(N)nsc65)[nH]4)C3=O)n2)cc1 [Example 12, 4-(3-((R)-2-((S)-(3-Amino-9-oxo-6,9-dihydroisothiazolo[5,4-f]quinazolin-7-yl)(hydroxy)methyl)-3-oxomorpholino)-1H-pyrazol-1-yl)benzonitrile]"
13,28.3,"N#Cc1ccc(-n2ccc(N3CCO[C@H]([C@@H](O)c4nc(=O)c5c(ccc6c(N)nsc65)[nH]4)C3=O)n2)cc1C(F)(F)F [Example 13, 4-(3-((R)-2-((S)-(3-Amino-9-oxo-6,9-dihydroisothiazolo[5,4-f]quinazolin-7-yl)(hydroxy)methyl)-3-oxomorpholino)-1H-pyrazol-1-yl)-2-(trifluoromethyl)benzonitrile]"
14,43.7,"Cc1cc(N2CCO[C@H]([C@@H](O)c3nc(=O)c4c(ccc5c(N)nsc54)[nH]3)C2=O)nn1C [Example 14, (R)-2-((S)-(3-Amino-9-oxo-6,9-dihydroisothiazolo[5,4-f]quinazolin-7-yl)(hydroxy)methyl)-4-(1,5-dimethyl-1H-pyrazol-3-yl)morpholin-3-one]"
15,39.8,"Nc1nsc2c1ccc1[nH]c([C@H](O)[C@H]3OCCN(c4ccn(C5CC5)n4)C3=O)nc(=O)c12 [Example 15, (R)-2-((S)-(3-Amino-9-oxo-6,9-dihydroisothiazolo[5,4-f]quinazolin-7-yl)(hydroxy)methyl)-4-(1-cyclopropyl-1H-pyrazol-3-yl)morpholin-3-one]"
16,31.9,"Cc1cc(N2CCO[C@H]([C@@H](O)c3nc(=O)c4c(ccc5c(N)nsc54)[nH]3)C2=O)nn1C1CCOCC1 [Example 16, (R)-2-((S)-(3-Amino-9-oxo-6,9-dihydroisothiazolo[5,4-f]quinazolin-7-yl)(hydroxy)methyl)-4-(5-methyl-1-(tetrahydro-2H-pyran-4-yl)-1H-pyrazol-3-yl)morpholin-3-one]"
17,43.7,"Nc1nsc2c1ccc1[nH]c([C@H](O)[C@H]3OCCN(c4cccc(C(F)(F)F)n4)C3=O)nc(=O)c12 [Example 17, (R)-2-((S)-(3-Amino-9-oxo-6,9-dihydroisothiazolo[5,4-f]quinazolin-7-yl)(hydroxy)methyl)-4-(6-(trifluoromethyl)pyridin-2-yl)morpholin-3-one]"
18,44.2,"Nc1nsc2c1ccc1[nH]c([C@H](O)[C@H]3OCCN(c4nc(C(F)(F)F)ccc4F)C3=O)nc(=O)c12 [Example 18, (R)-2-((S)-(3-Amino-9-oxo-6,9-dihydroisothiazolo[5,4-f]quinazolin-7-yl)(hydroxy)methyl)-4-(3-fluoro-6-(trifluoromethyl)pyridin-2-yl)morpholin-3-one]"
19,83.3,"Nc1nsc2c1ccc1[nH]c([C@H](O)[C@H]3OCCN(c4cccc(OC(F)F)n4)C3=O)nc(=O)c12 [Example 19, (R)-2-((S)-(3-Amino-9-oxo-6,9-dihydroisothiazolo[5,4-f]quinazolin-7-yl)(hydroxy)methyl)-4-(6-(difluoromethoxy)pyridin-2-yl)morpholin-3-one]"
